The source of these data is paper PMC4995014, “Identification of ABC Transporter Interaction of a Novel Cyanoquinoline Radiotracer and Implications for Tumour Imaging by Positron Emission Tomography” (PLoS ONE, 2016).

A value given as a limit tells only on which side of the number the result lay.

The target in data set [1] is T1, EGFR L858R (H3255 cells) (Homo sapiens, UniProt P00533, L858R).
T1 construct: host or cells: H3255
The data set can be described thus: Inhibition of EGFR autophosphorylation (p-EGFR Y1068, western blot) in H3255 cells. Format: cell-based. To be noted: 3 h incubation, densitometry of western blots. On the procedure:
(§1) Affinity of the cyanoquinolines for EGFR was established by measuring their inhibition of EGFR autophosphorylation via western blot. Cells were seeded in 6 well plates and following 24 h of growth, were subject to overnight serum starvation. The cells were then treated with increasing concentrations of cyanoquinolines prepared in serum free growth media from a DMSO stock (final DMSO concentration < 1%) for 3 h at 37°C, and stimulated for receptor autophosphorylation by addition of 100 ng/mL of EGF during the last 15 minutes of drug incubation. After 3 h the cells were placed on ice, media removed and then the cells were washed two times with ice cold phosphate buffered saline (PBS). Lysates were analysed by western blot to measure changes to p-EGFR Y1068.
(§2) Cells were collected into a microcentrifuge tube and sonicated for 30 seconds on ice. Cellular protein levels were assessed using a bicinchoninic acid (BCA) protein assay kit according to the manufacturer’s instructions (Thermo scientific). […] Samples were transferred to polyvinylidene difluoride (PVDF) membrane using Trans-Blot Turbo system BIO-RAD (Hercules, California, USA). […] The membranes were then incubated overnight with primary antibody prepared in 1% milk or 1% BSA in TBST. […] Membranes were washed a further three times for 10 minutes with TBST. […]
(A western blot detects proteins with antibodies after separation by electrophoresis.)

Data set [2] deals with caco2 cells. Description: Caco2 transwell assay. The format is in vitro ADME, human. To be noted: pre-treatment with zosuquidar. On the procedure: (§3) The caco2 transwell assay was performed to assess permeability. Cells were seeded at a density of 60,000 cells per well in 24 well transwell plates (Millipore, Billerica, Massachutsetts, USA), and maintained in DMEM supplemented with […] glucose (20% FBS, 1% penicillin/streptomycin, 1% glutamine) for 21 days at 37°C in 5% CO2. After 21 days the cells differentiate into enterocytes and express all three MDR proteins, ABCB1 and ABCG2 at the apical side and ABCC1 on the basal side. On day 21, cells were washed three times with Hank's Balanced Salt Solution (HBSS) (Fisher scientific, Loughborough, UK) and the trans-epithelial electric resistance (TERR) was measured using an Epithelial Voltohmmeter (EVOM) (World Precision Instruments, Sarasota, USA); only transwells with TERR of 400 Ω/cm^2 or above were used for the experiment. Cells were treated either at the apical (n = 3) or basal (n = 3) side of the transwell by addition of 10 μM of cyanoquinoline compound or 50 μM vinblastine prepared in a volume of 400 μL HBSS (compound added to apical well) or 800 μL of HBSS (added to basal well). When transport inhibitors FTC (10 μM) or zosuquidar (0.3 μM) were used, they were added to both the apical and basal wells 1 h prior to drug treatment. After 1 h pre-treatment the medium was removed and cells were treated with the compounds prepared in HBSS containing FTC or Zosuquidar.
(§4) Plates were incubated in shaker incubator at 37°C and 60 rpm for 120 min. After incubation, 200 μL aliquots from the apical and the basal wells were collected and analysed using high performance liquid chromatography (HPLC). Samples were run on a Millipore Waters HPLC system which included a 717 plus autosampler and 2487 dual wavelength absorbance detector system. The stationary phase comprised of a Phenomenex Luna C18 reverse phase column (150 X 4.6 mm; 5 μm particle size). The mobile phase comprised water (0.1% TFA) and acetonitrile (0.1% TFA) (80:20 v/v) at a flow rate of 1 mL/min for all compounds except vinblastine. For vinblastine, the stationary phase comprised a Supelcosil LC-ABZ reverse phase column (5 × 4.6 mm; 5 μm particle size). The mobile phase comprised water (0.1% formic acid) and methanol (90:10 to 10:90 v/v gradient over 20 min). Peak areas corresponding to the compounds of interest were recorded. Using standard curves the areas under the curve were converted into concentrations of compound. The permeability coefficient (Papp) was calculated using the following equation [30]: Papp = (dQ/dt)/A C0, where A is the surface area of the transwell membrane in cm^2 (= 0.33 cm^2), C0 is the drug concentration in the donor chamber at time t = 0 and dQ/dt is the rate of transfer of the compound to the receiver chamber, determined from the slope of the graph concentration (dQ) versus time (dt). Papp values corresponding to absorption and secretion were assessed and used to calculate efflux ratio. Efflux ratio =(Papp B−A)/(Papp A−B) Where Papp A-B = Papp absorption and Papp B-A = Papp secretion.
(§5) The integrity of the caco2 cell membrane was assessed for each well following the experiment by addition of a 100 μM solution of […] (Sigma) in HBSS to the apical side of the plate. The plates were placed in the shaker incubator for 1 h at 37°C and 60 rpm. Samples from the basal wells were transferred into a 96 well plate and the levels of […] were assessed by measuring with an excitation of 450 nm and an emission of 540 nm using the PerkinElmer Wallac 1420 counter.

Data set [3] is described as follows: Caco2 transwell assay. Format: in vitro ADME, human. To be noted: human, Caco-2, no inhibitor; 10 μM cyanoquinoline or 50 μM vinblastine, 120 min; read-out: efflux ratio (Papp B-A / Papp A-B). On the procedure: as §3, §4, §5
In general terms: Passage across Caco-2 layers is used to estimate intestinal permeability.

Data set [4] concerns the target T2, EGFR Del E746-A750 (PC9 cells) (Homo sapiens, UniProt P00533, DEL746-750).
T2 construct: endogenous in cells; host or cells: PC9 (Dr Olivier Pardo, Imperial College London)
The data set can be described thus: Inhibition of EGFR autophosphorylation (p-EGFR Y1068, western blot) in PC9 cells. The format is cell-based. The conditions noted are these: 3 h incubation, densitometry of western blots. As for the experimental part: as §1, §2

Data set [5] addresses T3, EGFR Del E746-A750/T790M (PC9ER cells) (Homo sapiens, UniProt P00533, DEL746-750/T790M).
T3 construct: endogenous in cells; host or cells: PC9ER (Dr Olivier Pardo, Imperial College London)
The data set can be described thus: Inhibition of EGFR autophosphorylation (p-EGFR Y1068, western blot) in PC9ER cells. Format: cell-based. On the procedure:
as §1
Cells were collected into a microcentrifuge tube and sonicated for 30 seconds on ice. Cellular protein levels were assessed using a bicinchoninic acid (BCA) protein assay kit according to the manufacturer’s instructions (Thermo scientific). […] Samples were transferred to polyvinylidene difluoride (PVDF) membrane using Trans-Blot Turbo system BIO-RAD (Hercules, California, USA). […] The membranes were then incubated overnight with primary antibody prepared in 1% milk or 1% BSA in TBST. […] Membranes were washed a further three times for 10 minutes with TBST. Blots were visualised using chemoluminescence (ECL, GE Healthcare, Little Chalfont, UK) and developed on Amersham Hyperfilm ECL (GE Healthcare). β-Actin was used as a loading control.

Data set [6] concerns EGFR. More on the design: method as in PMID 20797871, PMID 24307532. The conditions noted are these: cell-free; read-out: IC50 for inhibition of cell-free EGFR phosphorylation; cited from earlier work.
Data set [7] deals with T4, EGFR L858R/T790M (H1975 cells) (Homo sapiens, UniProt P00533, L858R/T790M).
T4 construct: host or cells: H1975
Description: Inhibition of EGFR autophosphorylation (p-EGFR Y1068, western blot) in H1975 cells. The format is cell-based. To be noted: 3 h incubation, densitometry of western blots. As for the experimental part: as §1, §2

The subject of data set [8] is PC9 and PC9ER cells. Description: Cell uptake assay in PC9 versus PC9ER cells. Format: cell-based. To be noted: 1 h incubation. As for the experimental part:
(§6) [^18F]FED6 and [^18F]FED20 were synthesised as previously reported. To increase specific radioactivity of [^18F]FED20, we modified the synthesis by decreasing the amount of alkyne precursor from 1 mg down to 0.5 mg. While this had the desired effect of increasing the specific activity from 7.3 GBq/μmol up to 52 GBq/μmol, the conversion of the alkyne to the triazole product dropped from > 95% down to 45%. Cells were seeded in 6 well plates and [^18F]FED6 (0.22 MBq) or [^18F]FED20 (0.55 MBq or 0.74 MBq) added to each well and incubated at 37°C for 1 h. Media were then removed and cells were washed twice with PBS. The cells were trypsinised and centrifuged for 3 minutes at 2000 rpm to obtain a pellet. The cell pellet was washed once with PBS and resuspended in 200 μL of RIPA buffer. Cell lysates were transferred to gamma counting tubes and the radioactivity in the pellet was measured on a Packard Cobra II gamma counter, (Perkin-Elmer, Waltham, Massachusetts, USA). Protein concentrations of samples were evaluated using Pierce® BCA Protein Assay Kit (Thermo Scientific, Waltham, Massachusetts, USA). Data were expressed as background- and decay-corrected counts per minute (CCPMA) per μg of cellular protein.

Data set [9] deals with cells. Description: Cell uptake assay, overall magnitude of uptake. Format: cell-based. On the procedure: as §6

As a reminder, the IC50 is the midpoint of a concentration-inhibition curve.

T3 sequence (P00533 with tags, fused parts or gaps DEL746-750/T790M): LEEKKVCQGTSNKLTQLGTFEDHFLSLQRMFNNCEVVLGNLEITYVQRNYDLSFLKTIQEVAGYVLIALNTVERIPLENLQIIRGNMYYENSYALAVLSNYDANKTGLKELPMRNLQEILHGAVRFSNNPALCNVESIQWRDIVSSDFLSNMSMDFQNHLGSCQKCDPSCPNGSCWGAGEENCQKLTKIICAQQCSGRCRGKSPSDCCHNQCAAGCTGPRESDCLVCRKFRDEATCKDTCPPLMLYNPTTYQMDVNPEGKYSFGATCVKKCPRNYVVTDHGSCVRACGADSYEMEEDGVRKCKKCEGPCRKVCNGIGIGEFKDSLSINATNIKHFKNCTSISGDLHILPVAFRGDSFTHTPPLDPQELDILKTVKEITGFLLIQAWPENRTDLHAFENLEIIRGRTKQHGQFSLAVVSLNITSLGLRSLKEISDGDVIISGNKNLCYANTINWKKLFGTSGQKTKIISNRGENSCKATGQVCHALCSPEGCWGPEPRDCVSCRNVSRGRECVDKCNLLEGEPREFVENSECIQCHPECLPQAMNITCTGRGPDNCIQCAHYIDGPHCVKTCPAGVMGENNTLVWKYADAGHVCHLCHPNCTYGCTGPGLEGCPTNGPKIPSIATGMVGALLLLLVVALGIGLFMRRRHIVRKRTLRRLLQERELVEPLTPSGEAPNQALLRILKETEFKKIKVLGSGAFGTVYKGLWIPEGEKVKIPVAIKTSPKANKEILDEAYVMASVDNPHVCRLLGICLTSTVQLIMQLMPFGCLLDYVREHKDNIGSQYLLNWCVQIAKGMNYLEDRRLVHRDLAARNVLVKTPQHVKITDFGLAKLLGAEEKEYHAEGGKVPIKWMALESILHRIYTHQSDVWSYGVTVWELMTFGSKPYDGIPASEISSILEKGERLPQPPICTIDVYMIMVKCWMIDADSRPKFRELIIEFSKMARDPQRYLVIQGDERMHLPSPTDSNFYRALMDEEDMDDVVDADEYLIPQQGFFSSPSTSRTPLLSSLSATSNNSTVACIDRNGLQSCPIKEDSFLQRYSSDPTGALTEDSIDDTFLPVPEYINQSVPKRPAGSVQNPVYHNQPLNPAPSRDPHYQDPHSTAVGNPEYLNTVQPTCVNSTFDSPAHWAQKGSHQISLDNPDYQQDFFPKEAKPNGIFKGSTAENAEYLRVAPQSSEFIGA
T4 sequence (P00533 25-1210 T790M/L858R): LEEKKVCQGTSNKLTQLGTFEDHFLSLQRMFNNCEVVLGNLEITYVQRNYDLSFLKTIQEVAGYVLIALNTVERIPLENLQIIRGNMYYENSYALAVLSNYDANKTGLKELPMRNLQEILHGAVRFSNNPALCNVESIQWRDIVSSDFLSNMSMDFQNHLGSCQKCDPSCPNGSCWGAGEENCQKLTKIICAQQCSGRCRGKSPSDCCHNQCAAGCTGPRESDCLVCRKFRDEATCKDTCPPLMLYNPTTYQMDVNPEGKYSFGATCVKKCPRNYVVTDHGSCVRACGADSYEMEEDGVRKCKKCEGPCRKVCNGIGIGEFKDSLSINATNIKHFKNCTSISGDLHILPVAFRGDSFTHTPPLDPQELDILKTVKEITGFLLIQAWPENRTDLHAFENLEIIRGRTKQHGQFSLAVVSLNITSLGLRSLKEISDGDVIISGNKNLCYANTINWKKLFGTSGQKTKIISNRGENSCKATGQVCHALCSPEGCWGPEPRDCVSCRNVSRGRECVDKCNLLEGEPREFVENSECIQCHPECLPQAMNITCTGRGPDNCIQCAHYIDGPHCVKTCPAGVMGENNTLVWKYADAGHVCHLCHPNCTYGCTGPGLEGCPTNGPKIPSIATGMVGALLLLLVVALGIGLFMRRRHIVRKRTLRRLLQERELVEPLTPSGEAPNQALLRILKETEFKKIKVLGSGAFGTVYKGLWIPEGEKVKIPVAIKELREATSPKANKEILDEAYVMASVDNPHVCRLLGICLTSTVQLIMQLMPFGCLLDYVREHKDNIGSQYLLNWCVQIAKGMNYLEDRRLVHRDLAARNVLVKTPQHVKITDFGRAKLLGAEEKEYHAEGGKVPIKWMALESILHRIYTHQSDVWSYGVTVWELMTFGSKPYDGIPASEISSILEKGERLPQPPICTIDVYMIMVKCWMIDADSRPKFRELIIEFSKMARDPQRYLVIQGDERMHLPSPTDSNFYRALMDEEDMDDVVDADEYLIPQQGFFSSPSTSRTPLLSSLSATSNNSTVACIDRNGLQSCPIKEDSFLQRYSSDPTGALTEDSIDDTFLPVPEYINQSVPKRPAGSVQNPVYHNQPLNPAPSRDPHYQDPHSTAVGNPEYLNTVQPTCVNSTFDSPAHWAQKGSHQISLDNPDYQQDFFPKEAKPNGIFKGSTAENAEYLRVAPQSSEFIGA
T1 sequence (P00533 25-1210 L858R): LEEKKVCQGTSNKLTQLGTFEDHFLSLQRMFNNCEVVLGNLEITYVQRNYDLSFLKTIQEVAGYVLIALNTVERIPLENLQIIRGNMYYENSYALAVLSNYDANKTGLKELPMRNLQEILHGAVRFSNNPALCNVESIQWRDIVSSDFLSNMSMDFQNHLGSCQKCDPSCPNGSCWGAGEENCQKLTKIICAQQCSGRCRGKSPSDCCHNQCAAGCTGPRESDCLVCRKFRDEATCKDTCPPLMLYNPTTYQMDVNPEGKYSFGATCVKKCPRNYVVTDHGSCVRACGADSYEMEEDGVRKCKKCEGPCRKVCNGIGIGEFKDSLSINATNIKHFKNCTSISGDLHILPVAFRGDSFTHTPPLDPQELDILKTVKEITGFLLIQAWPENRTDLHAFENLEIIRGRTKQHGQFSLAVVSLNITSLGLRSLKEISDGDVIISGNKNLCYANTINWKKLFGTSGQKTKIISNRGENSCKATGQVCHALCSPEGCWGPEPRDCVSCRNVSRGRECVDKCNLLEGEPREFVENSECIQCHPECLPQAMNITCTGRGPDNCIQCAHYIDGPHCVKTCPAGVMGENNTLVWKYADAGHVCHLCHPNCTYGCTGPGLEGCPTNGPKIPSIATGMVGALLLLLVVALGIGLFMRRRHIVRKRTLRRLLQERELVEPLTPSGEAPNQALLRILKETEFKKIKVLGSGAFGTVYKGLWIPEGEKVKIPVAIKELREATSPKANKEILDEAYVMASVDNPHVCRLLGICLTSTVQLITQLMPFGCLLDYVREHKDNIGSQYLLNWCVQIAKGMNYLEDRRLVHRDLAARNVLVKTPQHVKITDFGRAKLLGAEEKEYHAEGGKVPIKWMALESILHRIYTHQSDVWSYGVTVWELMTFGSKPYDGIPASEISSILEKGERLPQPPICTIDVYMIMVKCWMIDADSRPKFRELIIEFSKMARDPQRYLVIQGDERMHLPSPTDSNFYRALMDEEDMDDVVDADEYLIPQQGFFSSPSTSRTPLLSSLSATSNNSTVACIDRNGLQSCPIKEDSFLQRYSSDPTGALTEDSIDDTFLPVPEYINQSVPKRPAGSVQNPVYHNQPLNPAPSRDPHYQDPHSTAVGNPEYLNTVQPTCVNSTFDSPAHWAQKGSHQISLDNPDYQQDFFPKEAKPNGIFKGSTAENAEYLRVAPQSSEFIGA
T2 sequence (P00533 with tags, fused parts or gaps DEL746-750): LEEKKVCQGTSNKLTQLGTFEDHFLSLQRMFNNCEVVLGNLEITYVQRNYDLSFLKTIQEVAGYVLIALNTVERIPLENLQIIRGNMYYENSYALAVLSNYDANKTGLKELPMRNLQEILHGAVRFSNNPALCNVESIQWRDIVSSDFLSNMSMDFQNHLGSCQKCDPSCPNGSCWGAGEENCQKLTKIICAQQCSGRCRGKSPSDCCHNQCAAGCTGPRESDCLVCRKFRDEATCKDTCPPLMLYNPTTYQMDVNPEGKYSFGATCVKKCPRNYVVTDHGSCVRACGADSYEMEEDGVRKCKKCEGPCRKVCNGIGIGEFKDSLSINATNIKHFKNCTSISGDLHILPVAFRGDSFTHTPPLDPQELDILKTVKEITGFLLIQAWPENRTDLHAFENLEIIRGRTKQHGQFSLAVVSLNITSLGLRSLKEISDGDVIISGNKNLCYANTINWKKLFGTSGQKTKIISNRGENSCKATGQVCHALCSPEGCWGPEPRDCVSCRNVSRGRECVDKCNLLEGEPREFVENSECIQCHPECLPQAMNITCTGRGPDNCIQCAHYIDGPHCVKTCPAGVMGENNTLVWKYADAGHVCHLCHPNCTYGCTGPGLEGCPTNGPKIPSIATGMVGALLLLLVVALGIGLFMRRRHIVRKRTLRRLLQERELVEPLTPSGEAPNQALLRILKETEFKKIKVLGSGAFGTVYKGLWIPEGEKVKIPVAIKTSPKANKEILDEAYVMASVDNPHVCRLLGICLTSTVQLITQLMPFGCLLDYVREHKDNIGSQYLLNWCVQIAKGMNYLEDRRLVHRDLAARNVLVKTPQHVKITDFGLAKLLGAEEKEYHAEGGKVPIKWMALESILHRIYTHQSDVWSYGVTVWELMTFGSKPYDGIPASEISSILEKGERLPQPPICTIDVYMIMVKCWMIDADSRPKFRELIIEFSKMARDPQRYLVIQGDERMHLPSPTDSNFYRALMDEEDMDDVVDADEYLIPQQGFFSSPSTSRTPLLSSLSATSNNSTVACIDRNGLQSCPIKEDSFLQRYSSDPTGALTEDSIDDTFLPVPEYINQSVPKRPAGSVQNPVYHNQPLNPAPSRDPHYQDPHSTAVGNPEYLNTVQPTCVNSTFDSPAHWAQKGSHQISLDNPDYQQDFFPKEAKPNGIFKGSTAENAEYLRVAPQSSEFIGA

Take `CCOc1cc2ncc(C#N)c(Nc3ccc(F)c(Cl)c3)c2cc1NC(=O)/C=C/CNCc1cn([C@@H]2OC(CO)[C@@H](O)C(O)C2F)nn1` (stereo partly drawn) [FED20, (2E)-N-{4-[(3-chloro-4-fluorophenyl)amino]-3-cyano-7-ethoxyquinolin-6-yl}-4-[({1-[(2R,5S)-3-fluoro-4,5-dihydroxy-6-(hydroxymethyl)oxan-2-yl]-1H-1,2,3-triazol-4-yl}methyl)amino]but-2-enamide]: the IC50 in [1] is 300 nM; in data set [4], 300 nM; in [5] (3 h incubation, densitometry of western blots), 700 nM; in data set [6], 4.5 nM; in data set [7], 7100 nM. The “efflux (permeability) ratio after pre-treatment with zosuquidar” value in data set [2] is listed as “did not have any effect”. In addition, the efflux ratio at 120 min in data set [3] is 1.3. Further, in [5] (PC9ER versus isogenic PC9), the “fold higher IC50 (p-EGFR) in PC9ER compared to PC9” value was determined as 2 fold.
Regarding `CCOc1cc2ncc(C#N)c(Nc3ccc(F)c(Cl)c3)c2cc1NC(=O)/C=C/CNCc1cn([C@@H]2OC(CO)[C@@H](O)C(O)C2[18F])nn1` (stereo partly drawn) [[^18F]FED20, [^18F](2E)-N-{4-[(3-chloro-4-fluorophenyl)amino]-3-cyano-7-ethoxyquinolin-6-yl}-4-[({1-[(2R,5S)-3-fluoro-4,5-dihydroxy-6-(hydroxymethyl)oxan-2-yl]-1H-1,2,3-triazol-4-yl}methyl)amino]but-2-enamide], the “fold higher uptake in PC9 compared to PC9ER cells” value in data set [8] was determined as 2 fold. Moreover, in data set [9], the “fold lower magnitude of uptake than [^18F]FED6” value is over 5 fold.
